In assay [1] the target is T1, Tubulin (Homo sapiens) (UniProt P68371+Q9H4B7+P0DPH7+P68366+Q13509+Q71U36+P04350+Q3ZCM7+P07437+P68363+Q9BQE3+Q6PEY2+Q13885+Q9BVA1+Q9BUF5). Kind of assay: Inhibition of MAPs-rich tubulin (unknown origin) polymerization at 50 uM. The class given is protein-complex assay.
Assay [2] concerns the target Tubulin. Nature of the assay: Binding affinity to tubulin (unknown origin) by fluorescence assay. It counts as protein-complex assay, Homo sapiens.
Another assay has as its system A549. Nature of the assay: Cytotoxicity against human A549 cells. It counts as functional, cell-based.
The test system of another assay is MCF7. Nature of the assay: Cytotoxicity against human MCF7 cells. It counts as functional, cell-based.
The subject of assay [3] is HeLa. Nature of the assay: Cytotoxicity against human HeLa cells. The class given is functional, cell-based.
In assay [4] the test system is CCRF-CEM. Nature of the assay: Cytotoxicity against human CEM cells. The class given is functional, cell-based.
Assay [5] can be described thus: Cytotoxicity against human Non-small cell lung cancer cell. It counts as functional, cell-based. Particulars: Cancer cell lines.
For assay [6], the target named is T1, Tubulin (Homo sapiens). Nature of the assay: Inhibition of colchicine binding to tubulin (unknown origin) at 50 uM. It counts as protein-complex assay.
Assay [7] has as its system HeLa. Kind of assay: Antimitotic activity against human HeLa cells. It counts as functional, cell-based.
A short description of assay [8]: Antitumor activity against human CCRF-CEM/VLB100 cells xenografted in mouse assessed as reduction of tumor at 300 mg/kg/day, po administered for 32 days. It counts as functional. Particulars: 768 h, read-out: GI. In general terms: Xenograft models place foreign cells or tissue in a host animal.
Assay [9] deals with CCRF-CEM. Nature of the assay: Antitumor activity against human CEM cells xenografted in mouse assessed as reduction of tumor at 10 mg/kg/day, iv administered for 26 days. It counts as functional. Particulars: 624 h, read-out: GI.
For assay [10], the target named is Tubulin. Kind of assay: Binding affinity to tubulin (unknown origin). It counts as protein-complex assay, Homo sapiens.
Assay [11] in a line: Cell cycle arrest in human CCRF-CEM/VLB100 cells assessed as accumulation at G2/M phase. It counts as functional, cell-based.
The target in assay [12] is T1, Tubulin (Homo sapiens). Nature of the assay: Inhibition of colchicine binding to tubulin (unknown origin) at 25 uM. The class given is protein-complex assay.
The test system of assay [13] is CCRF-CEM. Kind of assay: Cell cycle arrest in human CEM cells assessed as accumulation at sub-G1 phase by measuring 2N DNA content after 72 hrs. It counts as functional.
A short description of assay [14]: Induction of apoptosis in human CCRF-CEM/VLB100 cells assessed as reduction of mitochondrial potential after 72 hrs. It counts as functional. Also on record: scale not given: the % may be the effect or the level left.
Assay [15] deals with HeLa. Kind of assay: Cell cycle arrest in human HeLa cells assessed as accumulation at G2/M phase by measuring 4N DNA content at 6.4 uM by flow cytometry. The class given is functional. Background: Flow cytometry measures light scatter and fluorescence of single cells or particles in a stream.
A short description of assay [16]: Cell cycle arrest in human CCRF-CEM/VLB100 cells assessed as accumulation at sub-G1 phase by measuring 2N DNA content after 72 hrs. It counts as functional, cell-based.
Assay [17] is described as follows: Induction of apoptosis in human CCRF-CEM/VLB100 cells assessed as reduction of mitochondrial potential after 24 hrs. It counts as functional. Also on record: scale not given: the % may be the effect or the level left.
Assay [18] has as its system CCRF-CEM. Kind of assay: Cell cycle arrest in human CEM cells assessed as accumulation at G2/M phase. It counts as functional.
For assay [19], the target named is T1, Tubulin (Homo sapiens). Kind of assay: Inhibition of colchicine binding to tubulin (unknown origin) at 100 uM. The class given is protein-complex assay.
The subject of assay [20] is CCRF-CEM. Kind of assay: Antitumor activity against human CEM cells xenografted in mouse assessed as reduction of tumor at 300 mg/kg/day, po administered for 26 days. Particulars: 624 h, read-out: GI. The class given is functional.
The nature of assay [21]: Cytotoxicity against human MCF-7 FLV1000 cells expressing […]. It counts as functional, cell-based.
Assay [22] in a line: Antitumor activity against human H460 cells xenografted in athymic nu/nu mouse assessed as tumor regression at 10 mg/kg/day, po administered for 24 days. The class given is functional, NCI-H460.

SMILES strings stand for the structures. pEC50, pIC50, pKd: −log10 of the molar value.

With `COc1ccc2c(c1OCCCCS(=O)(=O)O)C(=O)O[C@@H]2[C@H]1c2c(c(Br)c3c(c2OC)OCO3)CCN1C`, on Tubulin (Homo sapiens) [1], the inhibition is 68%.

For `COc1ccc2c(c1OC)C(=O)O[C@@H]2[C@H]1c2c(c(N)c3c(c2OC)OCO3)CCN1C`, the pKd on Tubulin [2] is 4.85.

For `COc1ccc2c(c1OC)C(=O)O[C@@H]2[C@H]1c2c(cc3c(c2OC)OCO3)CCN1Cc1ccccc1`, the negative logarithm of the IC50 (pIC50) in the assay on A549 was 4.42; with MCF7, 4.51; with HeLa [3], 4.71; in the assay with CCRF-CEM [4], 5.08.

Take `COc1ccc2c(c1OC)C(=O)O[C@@H]2[C@H]1c2c(cc3c(c2OC)OCO3)CCN1Cc1cccc(Br)c1`: the pIC50 is 4.49 with A549, 4.56 in the assay on MCF7, 4.76 in the assay on HeLa [3] and 5.12 in the assay with CCRF-CEM [4].

Take `COc1ccc2c(c1OC)C(=O)O[C@@H]2[C@@H]1NCCc2cc3c(c(OC)c21)OCO3`: the negative logarithm of the IC50 (pIC50) was 4.38 with A549, 4.47 in the assay on MCF7, 4.68 in the assay on HeLa [3] and 5.05 in the assay on CCRF-CEM [4].

In turn, `COc1ccc2c(c1OC)C(=O)O[C@@H]2[C@H]1c2c(c(Br)c3c(c2OC)OCO3)CCN1C` had a negative-log IC50 (pIC50) in [5] of 5.40. Further, the inhibition on Tubulin (Homo sapiens) [6] stood at 40%; at Tubulin (Homo sapiens) [12], 23%; on Tubulin (Homo sapiens) [19] it was 66%. The molecule also had a pEC50 in the assay on HeLa [7] of 5.11. For the same molecule, the inhibition in vivo at 300 mg/kg/day in assay [8] came out at 81%; in the assay with CCRF-CEM [20], 80%. Moreover, the inhibition in vivo at 10 mg/kg/day with CCRF-CEM [9] amounted to 80%. The molecule further showed a pKd at Tubulin [10] of 4.27. For the same molecule, the Activity worked out at 47% in [11]; 57% in the assay on CCRF-CEM [13]; 99% in assay [14]; 51.8% in the assay on HeLa [15]; 75% in [16]; 49% in [17]. Moreover, in the assay with CCRF-CEM [18], the Activity worked out at 45%.

On Tubulin (Homo sapiens) [1], `COc1ccc2c(c1OCCCCS(=O)(=O)O)C(=O)O[C@@H]2[C@H]1c2c(cc3c(c2OC)OCO3)CCN1C` came in with an inhibition of 74%.

In the case of `O=C1c2c(O)ccc(O)c2C(=O)c2c(NCCNCCO)ccc(NCCNCCO)c21` [MITOXANTRONE], the figures for the negative logarithm of the IC50 (pIC50) (in [21]; in the assay on MCF7) were 6.36 and 7.59, respectively.

In turn, `COc1ccc2c(c1OC)C(=O)O[C@@H]2[C@H]1c2c(c([N+](=O)[O-])c3c(c2OC)OCO3)CCN1C` showed a negative-log Kd (pKd) on Tubulin [2] of 4.07.

On to `COc1ccc2c(c1OC)CO[C@@H]2[C@H]1c2c(c(Br)c3c(c2OC)OCO3)CCN1C`, for which the pEC50 in the assay with HeLa [7] is 5.44. On Tubulin [10], this molecule showed a negative-log Kd (pKd) of 3.97. Also, the Activity in the assay with HeLa [15] stood at 72.7%.

With `CC(=O)O[C@@]12CO[C@@H]1C[C@H](O)[C@@]1(C)C(=O)[C@H](O)C3=C(C)[C@@H](OC(=O)[C@H](O)[C@@H](NC(=O)OC(C)(C)C)c4ccccc4)C[C@@](O)([C@@H](OC(=O)c4ccccc4)[C@H]21)C3(C)C` [DOCETAXEL ANHYDROUS], the Activity in [22] was 93%.

Usually inhibition stands for the drop in the measured response relative to a control, in per cent. The pKd is the negative decadic logarithm of the Kd, by convention in mol/L. What is called pIC50 is −log10 of the IC50, conventionally taken in molar units. For orientation: pEC50 means the EC50 on a negative log10 scale, so that one unit is a factor of ten.

The values are drawn from ChEMBL document CHEMBL3596161, “Progress Toward the Development of Noscapine and Derivatives as Anticancer Agents” (J Med Chem, 2015).
